According to US20220154282A1, “DETECTION MEANS, COMPOSITIONS AND METHODS FOR MODULATING SYNOVIAL SARCOMA CELLS” (The Broad Institute, Inc., priority 2019, published 2022):

Test system: Aska and SYO1 SyS cell lines
Test: SS18-SSX knockdown (shSSX vs shCt) with scRNA-Seq readout
Format: cell-based, human
Description: To decouple the intrinsic and extrinsic factor determining the malignant cell states in SyS Applicants first tested whether the core oncogenic and other programs were co-regulated by the genetic fusion driving SyS. Applicants turned to explore the potential regulators of these cellular programs, starting from the genetic driver. To this end, they depleted SS18-SSX in two SyS cell lines (SYO1 and Aska) using shRNA and profiled 12,263 cells with scRNA-Seq. The fusion KD led to massive and highly consistent transcriptional alternation in both cell lines (FIG. 7A, Tables 8, 9). […] Leveraging the single-cell readout Applicants confirmed that the KD impact on the core oncogenic and differentiation programs was decoupled from, and not secondary to, the repression of cellular proliferation (FIG. 7B), such that the impact on the core oncogenic and differentiation programs was observed even when controlling for the cycling status of the cells, and when considering only cycling or non-cycling cells (P<1.54*10^−13, t-test, FIG. 5B, METHODS). Thus, the fusion's impact on cell cycle may be secondary or downstream to its impact on the core oncogenic program. In addition, the fusion KD led to an induction of antigen presentation and cell autonomous immune responses, such as TNF and IFN signaling (P<1*10^−30, mixed-effects, FIG. 8A).
The SyS cell lines Aska and SYO1 were cultured using standard protocols in DMEM medium (Gibco) supplemented with 10-20% fetal bovine serum, 1% Glutamax (Gibco), 1% Sodium Pyruvate (Gibco) and 1% Penicillin-Streptomycin (Gibco) and grown in a humidified incubator at 37° C. with 5% CO2. Cells expressing a pLKO.1 vector with a scrambled shRNA hairpin control (5′-[…] CTTAGG-3′) (SEQ ID NO: 5) or a shSSX hairpin targeting SSX of the SS18-SSX fusion (5′-[…]-3′) (SEQ ID NO: 6) were prepared by lentiviral infection. In brief, lentivirus was prepared by transfection of HEK293T cells with gene delivery vector and the packaging vectors pspax2 and pMD2.G, filtration of media followed by ultracentrifugation, and then resuspension of viral pellet in PBS. Aska and SYO1 cells were infected with lentivirus for 48 hours and then underwent 5 days of selection with puromycin (2 μg/mL) prior to collection for single cell RNA-seq analysis.
The fusion program consists of genes that were differentially expressed in the Aska or SYO1 cells with the SS18-SSX shRNA (shSSX) compared to those with control shRNA (shCt) after 3 or 7 days post-infection. Gene that were previously reported (35, 36) to be bound by the SS18-SSX oncoprotein in at least two SyS cell lines were defined as direct SS18-SSX targets, and were used to stratify the SS18-SSX program to direct and indirect targets.

[1] = SSX shRNA (shSSX) vs control shRNA (shCt), ASKA and SYO1 cells, scRNA-Seq

## shSSX: shSSX hairpin targeting SSX of the SS18-SSX fusion (5′-CAGTCACTGACAGTTAATAAA-3′), pLKO.1 lentiviral vector
[1]
  mesenchymal differentiation program: induced
  overall expression of the cell cycle program: repressed
  overall expression of the core oncogenic program: repressed
shSSX vs shCt, SyS cells stratified by cycling status
  immune responses (topmost differentially expressed pathways): inducing multiple immune responses
